Assay results: publication PMC8286840, “Identifying SARS-CoV-2 antiviral compounds by screening for small molecule inhibitors of Nsp3 papain-like protease” (Biochemical Journal, 2021)
Values joined by “and” are separate entries in the source; they are usually repeats but may differ in a detail not shown here. Equal entries are not always repeated. “Also recorded” adds a separate entry of the source. Where two headings read alike, the source gives them in different places.

Tests used:
[1] = biological target: T1, SARS-CoV-2 PLpro (nsp3 1564–1878) (Severe acute respiratory syndrome coronavirus 2, UniProt P0DTD1); assay: biochemical; details: read-out: % of control remaining
[2] = biological target: T1, SARS-CoV-2 PLpro (nsp3 1564–1878); assay: biochemical; details: read-out: % of control remaining; remark: listed apart in the source
3CLpro (nsp5) = 3CLpro (nsp5) (Severe acute respiratory syndrome coronavirus 2, UniProt P0DTD1); format: biochemical, SARS-CoV-2
[3] = biological target: T1, SARS-CoV-2 PLpro (nsp3 1564–1878); assay: biochemical; design: FRET-quenched peptide (Pro3) cleavage by PLpro, 10 min pre-incubation, slope over 20 min, normalised to no-compound control; details: low concentration screen, read-out: % of control remaining
SARS-CoV-2 PLpro [4] = biological target: T2, SARS-CoV-2 PLpro (Severe acute respiratory syndrome coronavirus 2, UniProt P0DTD1); format: biochemical; details: 3.75 µM and 10 µM compound, 0.5 µM enzyme, 5 h RT
[5] = biological target: T1, SARS-CoV-2 PLpro (nsp3 1564–1878); assay: biochemical; design: FRET-quenched peptide (Pro3) cleavage by PLpro, 10 min pre-incubation, slope over 20 min, normalised to no-compound control; details: high concentration screen, read-out: % of control remaining
VERO E6 cells [6] = system: VERO E6 cells
[7] = biological target: T1, SARS-CoV-2 PLpro (nsp3 1564–1878); assay: biochemical; format: biochemical; details: for IC50: fluorescent-based assay; for Z score: screen hits, Table 1; for inhibition at 1.25 µM: read-out: Inhibition (%) 1.25 µM; for inhibition at 3.75 µM: read-out: Inhibition (%) 3.75 µM
SARS-CoV-2 = assay: microbe, parasite or virus in culture; format: cell-based
PLpro from SARS-CoV-1 = details: cited from earlier work
SARS-CoV-2 PLpro [8] = biological target: T2, SARS-CoV-2 PLpro; format: biochemical; details: 10 µM inhibitor, 50 nM PLpro, 1 µM substrate, 1 h 25°C
SARS-CoV-2 PLpro [9] = biological target: T2, SARS-CoV-2 PLpro; format: biochemical; details: 10 µM inhibitor, 50 nM PLpro, 1 µM substrate, 1 h 25°C; remark: listed apart in the source
VERO E6 cells [10] = assay: Cytotoxicity in the cell culture-based assay
SARS-CoV-1/-2 PLpro = details: non-covalent inhibitor; cited from earlier work
[11] = screen, 1.25 µM compound, 1.75 µM enzyme, 20 µM substrate
[12] = screen, 1.25 µM compound, number after the slash is the control without compound
[13] = screen, 3.75 µM compound, 1.75 µM enzyme, 20 µM substrate
[14] = screen, 3.75 µM compound, number after the slash is the control without compound
[15] = VERO E6 cells, compound alone, read-out: EC50 viral proliferation
[16] = Severe acute respiratory syndrome coronavirus 2, Vero C1008, VERO E6 cells, compound alone, read-out: EC50 viral proliferation
[17] = Severe acute respiratory syndrome coronavirus 2, Vero C1008, VERO E6 cells, compound plus 0.5 µM remdesivir, read-out: EC50 viral proliferation with remdesivir

`C[N+]1(C)CCc2cc3c(cc2[C@H]1[C@@H]1OC(=O)c2c1ccc1c2OCO1)OCO3` [(-)-Bicuculline methbromide, 1(S), 9(R)] showed a remaining activity at 1.25 µM [1] of 100% and a remaining activity at 3.75 µM [2] of 103%.

With `Cc1ccc(NC2=CC(=O)c3sc(C)nc3C2=O)cc1` [Cdk4 Inhibitor III] the “Inhibition of 3CLpro activity (gel-based)” value (3CLpro (nsp5); 3 and 10 µM compound) was “did not inhibit”, the remaining activity at 1.25 µM ([3]; Well no.=2408) was 81.1% and the “Inhibition of PLpro cleavage of the substrate (gel-based)” value (SARS-CoV-2 PLpro [4]) was “show inhibition; also recorded: strongly inhibited”. For the same compound, the remaining activity at 3.75 µM ([5]; Well no.=2408) was 61.4%, the Cytotoxicity (VERO E6 cells [6]) was “cytotoxic in the low micromolar range” and the IC50 [7] was 0.39 µM and 0.393 µM. For the same compound, the Z score [7] was −5.34, the “Inhibition (%) 1.25 µM” value [7, 11] was 19% and the “slope value (of slope value/control) 1.25 µM” value [7, 12] was 367. For the same compound, the “Inhibition (%) 3.75 µM” value [7, 13] was 39%, the “slope value (of slope value/control) 3.75 µM” value [7, 14] was 302 and the EC50 (SARS-CoV-2; [15]) was 3.4 µM.

With `C[C@H]1COC2=C1C(=O)C(=O)c1c2ccc2c1CCCC2(C)C` [Cryptotanshinone, cryptotanshinone] the “Inhibition of 3CLpro activity (gel-based)” value (3CLpro (nsp5); 3 and 10 µM compound) was “did not inhibit”, the remaining activity at 1.25 µM ([3]; Well no.=3557) was 100% and the “Inhibition of PLpro cleavage of the substrate (gel-based)” value (SARS-CoV-2 PLpro [4]) was “show inhibition; also recorded: inhibited cleavage, but only at the higher concentration”. The remaining activity at 3.75 µM ([5]; Well no.=3557) was 103%, the “Inhibition of SARS-CoV-1 PLpro” value (PLpro from SARS-CoV-1) was “better inhibitors of this enzyme than dihydrotanshinone I” and the EC50 (SARS-CoV-2; [16]) was 223 µM. The “Concentration below which viral growth was not inhibited” value (SARS-CoV-2; VERO E6 cells) was ≥ 200 µM.

For `Cc1cccc2c3c(ccc12)C1=C(C(=O)C3=O)[C@@H](C)CO1` [Dihydrotanshinone I], the “Inhibition of 3CLpro activity (gel-based)” value (3CLpro (nsp5); 3 and 10 µM compound) was “did not inhibit”, the “Inhibition of pro-ISG15 cleavage (deISGylating activity)” value (“Inhibition of pro-ISG15 cleavage” for short) (SARS-CoV-2 PLpro [8]) was “potent inhibition” and the “Inhibition of PLpro cleavage of the substrate (gel-based)” value (SARS-CoV-2 PLpro [4]) was “show inhibition; also recorded: strongly inhibited”. For the same compound, the “Inhibition of K48-linked Ub3 cleavage (DUB activity)” value (“Inhibition … (DUB activity)” below) (SARS-CoV-2 PLpro [9]) was “potent inhibition; also recorded: inhibited strongly”, the IC50 [7] was 0.586 µM and the IC50 ([7]; listed as dihydrotanshione I) was 0.59 µM. For the same compound, the Z score [7] was −4.52, the inhibition at 1.25 µM [7, 11] was 0% and the “slope value (of slope value/control) 1.25 µM” value [7, 12] was 449. For the same compound, the inhibition at 3.75 µM [7, 13] was 33%, the “slope value (of slope value/control) 3.75 µM” value [7, 14] was 329 and the “Inhibition of SARS-CoV-1 PLpro” value (PLpro from SARS-CoV-1) was “inhibit”. The Cytotoxicity (VERO E6 cells [10]) was “did not exhibit much cytotoxicity”, the EC50 (SARS-CoV-2; [16]) was 8 µM and the EC50 (SARS-CoV-2; [17]) was 5.35 µM. The EC50 (SARS-CoV-2; [15]) was 8.15 µM.

For `Cc1ccc(N)cc1C(=O)N[C@H](C)c1cccc2ccccc12` [GRL-0617], the “Effectiveness against SARS-CoV-1/-2 PLpro” value (SARS-CoV-1/-2 PLpro) is listed as “effective”, the Cytotoxicity (VERO E6 cells [6]) is listed as “some cell toxicity at higher concentrations” and the EC50 (SARS-CoV-2; read-out: EC50 viral proliferation) is listed as 32.6 µM. The EC50 (SARS-CoV-2; read-out: EC50 viral proliferation with remdesivir) was 32.2 µM.

`C=C1C(=O)O[C@@H]2[C@H]3O[C@]3(C)CC/C=C(\C)CC[C@@H]12` [Parthenolide] gave a remaining activity at 1.25 µM [1] of 96.7% and a remaining activity at 3.75 µM [2] of 97.3%.

For `Cc1cc2nc3c(=O)[nH]c(=O)nc-3n(C)c2cc1C=O` [Ro 08-2750, 2,3,4,10-Tetrahydro-7,10-dimethyl-2,4-dioxobenzo[g]pteridine-8-carboxaldehyde], the “Inhibition of 3CLpro activity (gel-based)” value (3CLpro (nsp5); 3 and 10 µM compound) was “did not inhibit”, the “Inhibition of pro-ISG15 cleavage” value (SARS-CoV-2 PLpro [8]) was “moderate inhibition” and the “Inhibition of PLpro cleavage of the substrate (gel-based)” value (SARS-CoV-2 PLpro [4]) was “show inhibition; also recorded: strongly inhibited”. For the same compound, the “Inhibition … (DUB activity)” value (SARS-CoV-2 PLpro [9]) was “moderate inhibition; also recorded: moderately”, the Cytotoxicity (VERO E6 cells [6]) was “some cell toxicity at higher concentrations” and the IC50 [7] was 0.53 µM and 0.531 µM. For the same compound, the Z score [7] was −5.79, the inhibition at 1.25 µM [7, 11] was 19% and the “slope value (of slope value/control) 1.25 µM” value [7, 12] was 366. For the same compound, the inhibition at 3.75 µM [7, 13] was 42%, the “slope value (of slope value/control) 3.75 µM” value [7, 14] was 287 and the EC50 (SARS-CoV-2; [16]) was 20 µM. It also gave an EC50 (SARS-CoV-2; [17]) of 22.7 µM.

For `Cc1coc2c1C(=O)C(=O)c1c-2ccc2c1CCCC2(C)C` [Tanshinone IIA, tanshinone IIA], the “Inhibition of 3CLpro activity (gel-based)” value (3CLpro (nsp5)) was “did not inhibit”, the remaining activity at 1.25 µM ([3]; Well no.=3178) was 105% and the remaining activity at 1.25 µM ([3]; Well no.=4084) was 99.4%. For the same compound, the “Inhibition of PLpro cleavage of the substrate (gel-based)” value (SARS-CoV-2 PLpro [4]) was “inhibited cleavage, but only at the higher concentration”, the “Inhibition of PLpro cleavage of the substrate (gel-based)” value (SARS-CoV-2 PLpro [4]; listed as tanshinone IIA) was “show inhibition” and the remaining activity at 3.75 µM ([5]; Well no.=3178) was 105%. The remaining activity at 3.75 µM ([5]; Well no.=4084) was 89.9%, the “Inhibition of SARS-CoV-1 PLpro” value (PLpro from SARS-CoV-1) was “better inhibitors of this enzyme than dihydrotanshinone I” and the EC50 (SARS-CoV-2; [16]) was 1150 µM.

In the case of `C[C@H](CCC(=O)O)[C@H]1CC[C@H]2[C@@H]3[C@@H](O)C[C@@H]4C[C@H](O)CC[C@]4(C)[C@H]3CC[C@]12C` [Ursodiol], the remaining activity at 1.25 µM ([3]; Well no.=8332) is reported as 89.1%, the “Inhibition of PLpro cleavage of the substrate (gel-based)” value (SARS-CoV-2 PLpro [4]) is reported as “did not inhibit” and the remaining activity at 3.75 µM ([5]; Well no.=8332) is reported as 90.6%. For the same compound, the “slope value (of slope value/control) 1.25 µM” value [7] was 26 (324/440), the “slope value (of slope value/control) 3.75 µM” value [7] was 55 (187/420) and the inhibition at 1.25 µM [7] was 26%. For the same compound, the inhibition at 3.75 µM [7] was 55% and the Z score [7] was −7.78.

With `CC1(C)CCC2=C(O1)c1ccccc1C(=O)C2=O` [beta-Lapachone] the “Inhibition of 3CLpro activity (gel-based)” value (3CLpro (nsp5)) was “did not inhibit”, the “Inhibition of pro-ISG15 cleavage” value (SARS-CoV-2 PLpro [8]) was “potent inhibition” and the “Inhibition of PLpro cleavage of the substrate (gel-based)” value (SARS-CoV-2 PLpro [4]) was “show inhibition; also recorded: strongly inhibited”. For the same compound, the “Inhibition … (DUB activity)” value (SARS-CoV-2 PLpro [9]) was “potent inhibition; also recorded: inhibited strongly”, the IC50 [7] was 0.61 µM and the Z score [7] was −4.66. The inhibition at 1.25 µM [7, 11] was 7%, the “slope value (of slope value/control) 1.25 µM” value [7, 12] was 420 and the inhibition at 3.75 µM [7, 13] was 34%. For the same compound, the “slope value (of slope value/control) 3.75 µM” value [7, 14] was 322, the Cytotoxicity (VERO E6 cells [10]) was “cytotoxic in the low micromolar range” and the EC50 (SARS-CoV-2; [16]) was 4.39 µM.

For `CC(C)=CC[C@@H](O)C1=CC(=O)c2c(O)ccc(O)c2C1=O` [shikonin], the remaining activity at 1.25 µM ([3]; Well no.=3172) was 86.4%, the remaining activity at 1.25 µM ([3]; Well no.=6398) was 96.8% and the “Inhibition of pro-ISG15 cleavage” value (SARS-CoV-2 PLpro [8]) was “did not inhibit”. The “Inhibition … (DUB activity)” value (SARS-CoV-2 PLpro [9]) was “did not inhibit and not”, the remaining activity at 3.75 µM ([5]; Well no.=3172) was 82.5% and the remaining activity at 3.75 µM ([5]; Well no.=6398) was 92.6%.
